Usually pIC50 stands for the negative decadic logarithm of the IC50, by convention in mol/L.

In assay [1] the test system is TNFα release from human peripheral blood mononuclear cells. The experiment in a line: Inhibition of TNFα release from LPS-stimulated human peripheral blood mononuclear cells (TNFα screen). Format: cell-based. As to conditions: 18 hours incubation, TNFα in supernatant by ELISA. As to the method: Venous blood is collected from healthy volunteers and the mononuclear cells purified by centrifugation through Histopaque (Ficoll) cushions. TNFα production from these cells is stimulated by addition of lipopolysaccharide. After 18 hours incubation in the presence of LPS, the cell supernatant is removed and the concentration of TNFα in the supernatant determined by ELISA.
(§1) Data are presented below for the Examples in which the TNFα and PDE4 inhibition are presented as IC50 values in nM.

The test system of another assay is PDE4. The experiment in a line: PDE4 inhibition: hydrolysis of tritium labelled cAMP to AMP, SPA bead scintillation counting. Type of assay: biochemical. As to conditions: tritium labelled cAMP incubated with PDE4, yttrium silicate SPA beads. On the procedure: The PDE4 inhibitory activity of the nicotinamide derivatives of the formula (I) is determined by the ability of compounds to inhibit the hydrolysis of cAMP to AMP by PDE4 (Thompson J W, Teraski W L, Epstein P M, Strada S J., “Assay of nucleotidephosphodiesterase and resolution of multiple molecular forms of the isoenzyme”, Advances in cyclic nucleotides research, edited by Brooker G, Greengard P, Robinson G A. Raven Press, New York 1979, 10, p. 69-92). Tritium labelled cAMP is incubated with PDE4. Following incubation, the radiolabelled AMP produced is able to bind yttrium silicate SPA beads. These SPA beads subsequently produce light that can be quantified by scintillation counting. The addition of a PDE4 inhibitor prevents the formation of AMP from cAMP and counts are diminished. The IC50 of a PDE4 inhibitor can be defined as the concentration of a compound that leads to a 50% reduction in counts compared to the PDE4 only (no inhibitor) control wells.
as §1

pIC50: −log10 of the molar value.

The compound `O=C(N[C@H]1CC[C@@H](NC(=O)c2cc(F)cnc2OC2CCSCC2)CC1)c1ccc(Cl)cc1O` [Example 15, Syn-N-[4-(4-Chloro-2-hydroxy-benzoylamino)-cyclohexyl]-5-fluoro-2-(tetrahydro-thiopyran-4-yloxy)-nicotinamide] had a negative logarithm of the IC50 (pIC50) in assay [1] (PBMC) of 9.40.
As to `O=C(N[C@H]1CC[C@@H](NC(=O)c2cc(F)cnc2OC2CCSCC2)CC1)c1cc(F)ccc1O` [Example 25, Syn-5-Fluoro-N-[4-(5-fluoro-2-hydroxy-benzoylamino)-cyclohexyl]-2-(tetrahydro-thiopyran-4-yloxy)-nicotinamide], the pIC50 in assay [1] (PBMC) was 9.10.
Regarding `O=C(N[C@H]1CC[C@@H](NC(=O)c2cc(Cl)cc(Cl)c2O)CC1)c1cc(F)cnc1OC1CCSCC1` [Example 26, Syn-N-[4-(3,5-Dichloro-2-hydroxy-benzoylamino)-cyclohexyl]-5-fluoro-2-(tetrahydro-thiopyran-4-yloxy)-nicotinamide], the negative logarithm of the IC50 (pIC50) in assay [1] was 7.85.
In turn, `O=C(N[C@H]1CC[C@@H](NC(=O)c2cc(F)cnc2OC2CCSCC2)CC1)c1cc(Cl)ccc1O` [Example 27, Syn-N-[4-(5-Chloro-2-hydroxy-benzoylamino)-cyclohexyl]-5-fluoro-2-(tetrahydro-thiopyran-4-yloxy)-nicotinamide] had a negative-log IC50 (pIC50) in assay [1] (PBMC) of 9.15.
Still for that read-out and setting: the figure for `Cc1cccc(C(=O)N[C@H]2CC[C@@H](NC(=O)c3cc(F)cnc3OC3CCSCC3)CC2)c1O` [Example 28, Syn-5-Fluoro-N-[4-(2-hydroxy-3-methyl-benzoylamino)-cyclohexyl]-2-(tetrahydro-thiopyran-4-yloxy)-nicotinamide] is 7.92.
On to `O=C(N[C@H]1CC[C@@H](NC(=O)c2cc(F)cnc2OC2CCSCC2)CC1)c1ccccc1O` [Example 29, Syn-5-Fluoro-N-[4-(2-hydroxy-benzoylamino)-cyclohexyl]-2-(tetrahydro-thiopyran-4-yloxy)-nicotinamide], for which the pIC50 in assay [1] (PBMC) is 9.40.
Regarding `O=C(N[C@H]1CC[C@@H](NC(=O)c2cc(O)nc3ccccc23)CC1)c1cc(F)cnc1OC1CCSCC1` [Example 30, Syn-2-Hydroxy-guinoline-4-carboxylic acid (4-{[5-fluoro-2-(tetrahydro-thiopyran-4-yloxy)-pyridine-3-carbonyl]-amino}-cyclohexyl)-amide], in assay [1] (PBMC), the pIC50 was 8.70.
On the same count and under the same terms, the figure for `Cc1cc(C(=O)N[C@H]2CC[C@@H](NC(=O)c3cc(F)cnc3OC3CCSCC3)CC2)c2cc(O)ccc2n1` [Example 31, Syn-6-Hydroxy-2-methyl-quinoline-4-carboxylic acid (4-{[5-fluoro-2-(tetrahydro-thiopyran-4-yloxy)-pyridine-3-carbonyl]-amino}-cyclohexyl)-amide] is 9.00; for `O=C(N[C@H]1CC[C@@H](NC(=O)c2ccnc3c(O)cccc23)CC1)c1cc(F)cnc1OC1CCSCC1` [Example 32, Syn-8-Hydroxy-quinoline-4-carboxylic acid (4-{[5-fluoro-2-(tetrahydro-thiopyran-4-yloxy)-pyridine-3-carbonyl]-amino}-cyclohexyl)-amide] it is 8.00.
In assay [1] (PBMC), `O=C(N[C@H]1CC[C@@H](NC(=O)c2cccc3cn[nH]c23)CC1)c1cc(F)cnc1OC1CCSCC1` [Example 33, Syn-1H-Indazole-7-carboxylic acid (4-{[5-fluoro-2-(tetrahydro-thiopyran-4-yloxy)-pyridine-3-carbonyl]-amino}-cyclohexyl)-amide] showed a negative-log IC50 (pIC50) of 10.15.
The compound `O=C(N[C@H]1CC[C@@H](NC(=O)c2cc(F)cnc2OC2CCSCC2)CC1)c1ccc2cn[nH]c2c1` [Example 34, Syn-1H-Indazole-6-carboxylic acid (4-{[5-fluoro-2-(tetrahydro-thiopyran-4-yloxy)-pyridine-3-carbonyl]-amino}-cyclohexyl)-amide] showed a negative-log IC50 (pIC50) in assay [1] (PBMC) of 9.00. Against the preceding compound, the pIC50 is 1.15 log units lower.
Regarding `Cc1cc(C(=O)N[C@H]2CC[C@@H](NC(=O)c3cc(F)cnc3OC3CCSCC3)CC2)nn1C` [Example 42], the negative-log IC50 (pIC50) with PDE4 was 9.52; in assay [1] (PBMC), 10.70.
On to `O=C(N[C@H]1CC[C@@H](NC(=O)c2cccn3c(CO)cnc23)CC1)c1cc(F)cnc1OC1CCSCC1` [Example 51, Syn-3-Hydroxymethyl-imidazo[1,2-a]pyridine-8-carboxylic acid (4-{[5-fluoro-2-(tetrahydro-thiopyran-4-yloxy)-pyridine-3-carbonyl]-amino}-cyclohexyl)-amide], for which the negative-log IC50 (pIC50) in assay [1] (PBMC) is 10.00.
The compound `Cc1cc(C(=O)N[C@H]2CC[C@@H](NC(=O)c3cc(F)cnc3OC3CCSCC3)CC2)nn1CCO` [Example 52, Syn-5-Fluoro-N-(4-{[1-(2-hydroxy-ethyl)-5-methyl-1H-pyrazole-3-carbonyl]-amino}-cyclohexyl)-2-(tetrahydro-thiopyran-4-yloxy)-nicotinamide] showed a pIC50 in assay [1] (PBMC) of 10.52. This pIC50 is 0.52 log units higher than that of the compound before.
As for `O=C(N[C@H]1CC[C@@H](NC(=O)c2nn(CCO)c3ccccc23)CC1)c1cc(F)cnc1OC1CCSCC1` [Example 53, Syn-1-(2-Hydroxy-ethyl)-1H-indazole-3-carboxylic acid (4-{[5-fluoro-2-(tetrahydro-thiopyran-4-yloxy)-pyridine-3-carbonyl]-amino}-cyclohexyl)-amide], in assay [1] (PBMC), the pIC50 is 11.00.
The same measure, in the same setting: then `CCc1cc(C(=O)N[C@H]2CC[C@@H](NC(=O)c3cc(F)cnc3OC3CCSCC3)CC2)nn1CCO` [Example 54, Syn-N-(4-{[5-Ethyl-1-(2-hydroxy-ethyl)-1H-pyrazole-3-carbonyl]-amino}-cyclohexyl)-5-fluoro-2-(tetrahydro-thiopyran-4-yloxy)-nicotinamide], with 10.00.
As to `CCc1cc(C(=O)N[C@H]2CC[C@@H](NC(=O)c3cc(F)cnc3OC3CCSCC3)CC2)n(CCO)n1` [Example 55, Syn-N-(4-{[5-Ethyl-2-(2-hydroxy-ethyl)-2H-pyrazole-3-carbonyl]-amino}-cyclohexyl)-5-fluoro-2-(tetrahydro-thiopyran-4-yloxy)-nicotinamide], in assay [1] (PBMC), the pIC50 is 7.77.
With `CC(C)c1cc(C(=O)N[C@H]2CC[C@@H](NC(=O)c3cc(F)cnc3OC3CCSCC3)CC2)n(CCO)n1` [Example 56, Syn-5-Fluoro-N-(4-{[2-(2-hydroxy-ethyl)-5-isopropyl-2H-pyrazole-3-carbonyl]-amino}-cyclohexyl)-2-(tetrahydro-thiopyran-4-yloxy)-nicotinamide], the pIC50 in assay [1] (PBMC) is 7.70.
In turn, `CC(C)c1cc(C(=O)N[C@H]2CC[C@@H](NC(=O)c3cc(F)cnc3OC3CCSCC3)CC2)nn1CCO` [Example 57, Syn-5-Fluoro-N-(4-{[1-(2-hydroxy-ethyl)-5-isopropyl-1H-pyrazole-3-carbonyl]-amino}-cyclohexyl)-2-(tetrahydro-thiopyran-4-yloxy)-nicotinamide] showed a pIC50 in assay [1] (PBMC) of 10.15.
The same measure, in the same setting: then `O=C(N[C@H]1CC[C@@H](NC(=O)c2cc(F)cnc2OC2CCSCC2)CC1)c1ccc(O)cc1O` [Example 58, Syn-N-[4-(2,4-Dihydroxy-benzoylamino)-cyclohexyl]-5-fluoro-2-(tetrahydro-thiopyran-4-yloxy)-nicotinamide], with 9.00; and `Cc1cnc2c(C(=O)N[C@H]3CC[C@@H](NC(=O)c4cc(F)cnc4OC4CCSCC4)CC3)cccn12` [Example 60, Syn-3-Methyl-imidazo[1,2a]pyridine-8-carboxylic acid (4-{[5-fluoro-2-(tetrahydro-thiopyran-4-yloxy)-pyridine-3-carbonyl]-amino}-cyclohexyl)-amide], with 10.22.
The same measure, in the same setting: the figure for `O=C(N[C@H]1CC[C@@H](NC(=O)c2cc(Cl)cnc2OC2CCSCC2)CC1)c1cc(CO)ccc1O` [Example 61, Syn-5-Chloro-N-[4-(2-hydroxy-5-hydroxymethyl-benzoylamino)-cyclohexyl]-2-(tetrahydro-thiopyran-4-yloxy)-nicotinamide] is 8.52; for `Cc1cnc(OC2CCSCC2)c(C(=O)N[C@H]2CC[C@@H](NC(=O)c3cc(CO)ccc3O)CC2)c1` [Example 62, Syn-N-[4-(2-Hydroxy-5-hydroxymethyl-benzoylamino)-cyclohexyl]-5-methyl-2-(tetrahydro-thiopyran-4-yloxy)-nicotinamide] it is 7.92.
Regarding `Cc1ccc(S(=O)(=O)N[C@H]2CC[C@@H](NC(=O)c3cc(F)cnc3OC3CCSCC3)CC2)cc1` [Example 69, Syn-5-Fluoro-2-(tetrahydro-thiopyran-4-yloxy)-N-[4-(toluene-4-sulfonylamino)-cyclohexyl]-nicotinamide], in assay [1] (PBMC), the pIC50 is 7.82.
In turn, `Cc1ccccc1S(=O)(=O)N[C@H]1CC[C@@H](NC(=O)c2cc(F)cnc2OC2CCSCC2)CC1` [Example 70, Syn-5-Fluoro-2-(tetrahydro-thiopyran-4-yloxy)-N-[4-(toluene-2-sulfonylamino)-cyclohexyl]-nicotinamide] had a pIC50 in assay [1] (PBMC) of 8.70.
`O=C(NC1CCC(NS(=O)(=O)c2c(O)ccc3cccnc23)CC1)c1cc(F)cnc1OC1CCSCC1` (stereo not drawn) [Example 72, Syn-5-Fluoro-N-[4-(7-hydroxy-quinoline-8-sulfonylamino)-cyclohexyl]-2-(tetrahydro-thiopyran-4-yloxy)-nicotinamide] gave a negative-log IC50 (pIC50) in assay [1] of 12.00.
With `O=C(NC1CCC(NS(=O)(=O)c2c(O)ccc3cccnc23)CC1)c1cccnc1OC1CCSCC1` (stereo not drawn) [Example 73, Syn-N-[4-(7-hydroxy-quinoline-8-sulfonylamino)-cyclohexyl]-2-(tetrahydro-thiopyran-4-yloxy)-nicotinamide], in assay [1], the pIC50 is 10.52.

Source of the values: patent US20050043326A1, “Compounds” (Pfizer Inc, priority 2003, published 2005).
